Patent publication US11834454B2, “Alkynylphenylbenzamide compounds and applications thereof” (SHENZHEN NEWDEL BIOTECH CO., LTD., priority 2021, dated 2023)
Where two headings read alike, the source gives them in different places.

Legend:
[1] = biological target: Bcr-Abl (Homo sapiens, UniProt P00519); assay: Kinase selectivity, Z'-LYTE
Experimental: (§4) Enzymatic reaction: In a 384-well plate, added 5 μL of enzyme-substrate system [50 mM 4-hydroxyethylpiperazineethanesulfonic acid (HEPES) pH 7.5, 0.01% BRIJ-35, 10 mM of magnesium chloride (MgCl2), 1 mM of ethylene glycol bis(2-aminoethyl ether)tetraacetic acid (EGTA), 2 μM of Tyr 01 peptide substrate], transferred 5 nL of compound (concentration gradient) using an Echo520 Ultra-Micro Liquid Pipetting System. […] Shaked and mixed, then centrifuged, and reacted at 30° C. in the dark for 1.5 hours.

[2] = biological target: SRC (Homo sapiens, UniProt P12931); assay: Kinase selectivity, Z'-LYTE
Experimental: as §4

[3] = biological target: RET (Homo sapiens, UniProt P07949); assay: Kinase selectivity, Z'-LYTE
Experimental: as §4

[4] = biological target: VEGFR2 (Homo sapiens, UniProt P35968); assay: Kinase selectivity, Z'-LYTE
Experimental: as §4

[5] = biological target: Kit (Homo sapiens, UniProt P10721); assay: Kinase selectivity, Z'-LYTE
Experimental: as §4

[6] = biological target: PDGFRA (Homo sapiens, UniProt P16234); assay: Kinase selectivity, Z'-LYTE
Experimental: as §4

[7] = biological target: PDGFRB (Homo sapiens, UniProt P09619); assay: Kinase selectivity, Z'-LYTE
Experimental: as §4

[8] = SD rats, cited from earlier work
[9] = biological target: T1, TRKA (Homo sapiens, UniProt P04629); assay: Z'-LYTE kinase activity detection, TRKA; type: biochemical
T1 construct: purchased American Life Technologies PV3144
T1 sequence (P04629 33-796): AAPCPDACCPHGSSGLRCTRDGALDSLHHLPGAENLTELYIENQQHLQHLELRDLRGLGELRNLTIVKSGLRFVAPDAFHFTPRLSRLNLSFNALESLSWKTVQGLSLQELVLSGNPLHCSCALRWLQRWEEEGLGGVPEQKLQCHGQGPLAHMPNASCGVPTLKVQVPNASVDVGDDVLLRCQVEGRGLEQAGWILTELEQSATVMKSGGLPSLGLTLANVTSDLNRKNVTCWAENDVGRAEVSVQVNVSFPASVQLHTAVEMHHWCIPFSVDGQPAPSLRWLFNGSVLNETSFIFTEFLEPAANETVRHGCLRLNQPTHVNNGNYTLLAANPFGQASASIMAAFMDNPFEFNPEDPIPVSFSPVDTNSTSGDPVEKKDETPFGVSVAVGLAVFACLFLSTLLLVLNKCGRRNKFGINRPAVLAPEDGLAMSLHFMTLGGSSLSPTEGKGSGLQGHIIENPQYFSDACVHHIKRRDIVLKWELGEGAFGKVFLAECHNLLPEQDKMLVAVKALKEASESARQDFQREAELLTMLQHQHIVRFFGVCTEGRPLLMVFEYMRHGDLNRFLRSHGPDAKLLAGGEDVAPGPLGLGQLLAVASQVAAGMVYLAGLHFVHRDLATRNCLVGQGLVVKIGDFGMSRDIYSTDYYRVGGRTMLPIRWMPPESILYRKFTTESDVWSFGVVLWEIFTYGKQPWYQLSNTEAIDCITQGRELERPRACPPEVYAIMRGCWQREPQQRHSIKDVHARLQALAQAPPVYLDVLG

[10] = biological target: T2, TRKB (Homo sapiens, UniProt Q16620); assay: Z'-LYTE kinase activity detection, TRKB; type: biochemical
T2 construct: purchased American Life Technologies PV3616
T2 sequence (Q16620 32-822): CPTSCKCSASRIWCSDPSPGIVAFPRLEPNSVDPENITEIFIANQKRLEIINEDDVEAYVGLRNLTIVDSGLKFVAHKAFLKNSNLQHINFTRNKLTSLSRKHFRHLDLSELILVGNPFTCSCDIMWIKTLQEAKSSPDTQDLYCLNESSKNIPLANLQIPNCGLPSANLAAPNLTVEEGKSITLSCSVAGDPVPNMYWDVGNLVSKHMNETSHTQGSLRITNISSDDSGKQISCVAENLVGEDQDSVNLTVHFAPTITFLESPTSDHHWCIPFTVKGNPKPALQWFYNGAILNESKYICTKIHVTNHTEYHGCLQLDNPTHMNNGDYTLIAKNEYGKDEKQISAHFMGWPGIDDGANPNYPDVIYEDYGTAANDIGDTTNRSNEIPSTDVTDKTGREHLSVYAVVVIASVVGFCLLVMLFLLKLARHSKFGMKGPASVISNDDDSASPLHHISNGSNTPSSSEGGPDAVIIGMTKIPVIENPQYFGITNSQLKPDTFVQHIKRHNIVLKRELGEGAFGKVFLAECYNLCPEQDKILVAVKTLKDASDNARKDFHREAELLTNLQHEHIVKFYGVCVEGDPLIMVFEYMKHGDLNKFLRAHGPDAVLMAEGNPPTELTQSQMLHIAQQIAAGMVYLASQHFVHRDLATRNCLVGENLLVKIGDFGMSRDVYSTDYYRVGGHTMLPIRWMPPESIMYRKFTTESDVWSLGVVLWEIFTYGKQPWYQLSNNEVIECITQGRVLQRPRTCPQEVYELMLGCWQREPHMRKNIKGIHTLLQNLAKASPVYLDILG

[11] = biological target: T3, TRKC (Homo sapiens, UniProt Q16288); assay: Z'-LYTE kinase activity detection, TRKC; type: biochemical
T3 construct: purchased American Life Technologies PV3617
T3 sequence (Q16288 32-839): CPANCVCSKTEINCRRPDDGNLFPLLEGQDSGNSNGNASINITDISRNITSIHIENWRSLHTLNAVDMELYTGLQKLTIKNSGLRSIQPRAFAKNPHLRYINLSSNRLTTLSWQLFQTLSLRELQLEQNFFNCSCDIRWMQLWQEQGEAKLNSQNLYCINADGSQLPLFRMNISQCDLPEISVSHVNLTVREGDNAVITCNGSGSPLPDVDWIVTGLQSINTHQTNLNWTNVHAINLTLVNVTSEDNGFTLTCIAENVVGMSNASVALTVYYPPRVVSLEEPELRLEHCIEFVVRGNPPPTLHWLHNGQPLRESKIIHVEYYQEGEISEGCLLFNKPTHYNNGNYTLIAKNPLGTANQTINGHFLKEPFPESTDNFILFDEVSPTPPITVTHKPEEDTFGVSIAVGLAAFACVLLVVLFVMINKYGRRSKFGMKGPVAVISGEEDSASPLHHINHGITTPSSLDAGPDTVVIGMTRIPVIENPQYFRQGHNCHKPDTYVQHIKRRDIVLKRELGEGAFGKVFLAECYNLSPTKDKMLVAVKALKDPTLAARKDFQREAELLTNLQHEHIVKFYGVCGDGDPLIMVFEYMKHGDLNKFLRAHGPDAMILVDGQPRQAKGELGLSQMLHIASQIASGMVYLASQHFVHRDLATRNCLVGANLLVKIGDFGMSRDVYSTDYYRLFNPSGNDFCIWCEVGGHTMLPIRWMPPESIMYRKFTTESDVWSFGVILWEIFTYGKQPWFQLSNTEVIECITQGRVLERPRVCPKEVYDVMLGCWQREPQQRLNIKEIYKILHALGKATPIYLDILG

[12] = biological target: T4, BaF3-CD74-NTRK1 (Homo sapiens, UniProt P04629); assay: Cell proliferation inhibition, Ba/F3-TRKs stable strain (CCK-8); type: cell-based, mouse; conditions: 72 hours, read-out: cell viability IC50 CD74-NTRK1
T4 construct: fused on or other part: P04233 (HLA class II histocompatibility antigen gamma chain)
T4 sequence (P04629 510-796 limits assumed): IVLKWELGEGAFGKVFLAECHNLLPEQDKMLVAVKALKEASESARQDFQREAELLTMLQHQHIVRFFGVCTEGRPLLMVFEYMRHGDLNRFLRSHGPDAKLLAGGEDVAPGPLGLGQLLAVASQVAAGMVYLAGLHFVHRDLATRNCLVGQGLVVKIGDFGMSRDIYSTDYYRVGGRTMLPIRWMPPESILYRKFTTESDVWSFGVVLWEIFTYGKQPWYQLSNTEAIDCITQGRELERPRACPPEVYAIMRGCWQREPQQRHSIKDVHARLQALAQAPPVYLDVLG
Source text: (§1) The BaF3 cells (mouse pre-B cells) used in this experiment were purchased from the Japanese Cell Bank. All of the monoclonal stable strains, BaF3-CD74-NTRK1, BaF3-ETV6-NTRK2 and BaF3-ETV6-NTRK3 were constructed by our laboratory, and were identified by experiments such as positive control, protein expression and gene sequencing.
(§2) The brief steps of stable strain construction were as follows: constructed pCDNA3.1(+) plasmid vector carrying genes such as CD74-NTRK1, ETV6-NTRK2, ETV6-NTRK3; the plasmid was electroporated into Ba/F3 cells using Amaxa® Cell Line Nucleofector® Kit V; 48 hours after electroporation, geneticin (G418) with a final concentration of 1000 μg/mL was added to screen for two weeks, and the interleukin 3 (IL3) was removed to continue screening to obtain polyclonal stable strains; and then single clones were selected by limiting dilution method; the stable strains were then identified by the positive drugs, Western Blot (WB), and gene sequencing; the correct monoclonal through identification can be used to study the cell proliferation inhibitory activity of the inhibitors.
(§3) Cell proliferation inhibitory activity study: The cells in logarithmic growth phase were seeded into 96-well plates at 8000-12000 cells/well, and the inhibitors at different concentrations of (0-10 μM) were added the next day, and the culture was continued for 72 hours; then 10 μL of Cell Counting Kit-8 Cell Counting Reagent (CCK-8 Reagent) was added to each well, and continued to incubate for 1-3 hours; then its absorbance at 450 nm and 650 nm were measured with a super microplate reader. The median inhibitory concentration (IC50) was calculated using medical graphing software (GraphPad Prism 8.0.0).

[13] = biological target: T5, BaF3-ETV6-NTRK2 (Homo sapiens, UniProt Q16620); assay: as above; type: cell-based, mouse; conditions: 72 hours, read-out: cell viability IC50 ETV6-NTRK2
T5 construct: fused on or other part: P41212 (Transcription factor ETV6)
T5 sequence (Q16620 538-822 limits assumed): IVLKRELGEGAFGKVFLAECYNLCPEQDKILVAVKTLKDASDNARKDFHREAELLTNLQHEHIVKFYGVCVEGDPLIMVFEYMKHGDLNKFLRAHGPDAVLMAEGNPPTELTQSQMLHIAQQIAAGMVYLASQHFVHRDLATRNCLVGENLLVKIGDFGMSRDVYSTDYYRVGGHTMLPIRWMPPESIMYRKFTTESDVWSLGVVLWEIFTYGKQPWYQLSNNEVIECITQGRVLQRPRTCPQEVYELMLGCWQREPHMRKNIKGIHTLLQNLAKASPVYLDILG
Source text: as §1, §2, §3

[14] = biological target: T6, BaF3-ETV6-NTRK3 (Homo sapiens, UniProt Q16288); assay: as above; type: cell-based, mouse; conditions: 72 hours, read-out: cell viability IC50 ETV6-NTRK3
T6 construct: fused on or other part: P41212 (Transcription factor ETV6)
T6 sequence (Q16288 whole entry, the tested form may be a part): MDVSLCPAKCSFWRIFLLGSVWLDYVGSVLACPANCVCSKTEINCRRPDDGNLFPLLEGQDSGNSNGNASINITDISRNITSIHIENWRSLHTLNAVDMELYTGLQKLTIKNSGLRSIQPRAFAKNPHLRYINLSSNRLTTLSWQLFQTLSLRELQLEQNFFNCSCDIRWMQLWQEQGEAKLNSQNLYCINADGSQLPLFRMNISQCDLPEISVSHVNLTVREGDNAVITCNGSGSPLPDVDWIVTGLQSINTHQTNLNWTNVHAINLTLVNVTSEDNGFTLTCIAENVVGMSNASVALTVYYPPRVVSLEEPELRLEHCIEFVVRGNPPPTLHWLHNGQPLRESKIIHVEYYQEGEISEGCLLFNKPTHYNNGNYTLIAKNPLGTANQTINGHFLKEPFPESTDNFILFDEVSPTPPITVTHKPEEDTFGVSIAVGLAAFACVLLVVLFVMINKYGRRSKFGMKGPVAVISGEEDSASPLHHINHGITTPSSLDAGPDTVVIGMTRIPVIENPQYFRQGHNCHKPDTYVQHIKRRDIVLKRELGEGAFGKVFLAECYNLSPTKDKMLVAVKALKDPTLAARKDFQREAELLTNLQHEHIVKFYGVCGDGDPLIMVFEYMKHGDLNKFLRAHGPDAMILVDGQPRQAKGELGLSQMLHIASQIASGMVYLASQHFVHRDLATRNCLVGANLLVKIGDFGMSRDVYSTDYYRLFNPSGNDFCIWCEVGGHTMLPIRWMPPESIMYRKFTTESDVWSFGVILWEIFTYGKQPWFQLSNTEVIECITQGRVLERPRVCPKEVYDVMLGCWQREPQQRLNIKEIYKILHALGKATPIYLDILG
Source text: as §1, §2, §3

Sequence of SRC (P12931 whole entry, species assumed): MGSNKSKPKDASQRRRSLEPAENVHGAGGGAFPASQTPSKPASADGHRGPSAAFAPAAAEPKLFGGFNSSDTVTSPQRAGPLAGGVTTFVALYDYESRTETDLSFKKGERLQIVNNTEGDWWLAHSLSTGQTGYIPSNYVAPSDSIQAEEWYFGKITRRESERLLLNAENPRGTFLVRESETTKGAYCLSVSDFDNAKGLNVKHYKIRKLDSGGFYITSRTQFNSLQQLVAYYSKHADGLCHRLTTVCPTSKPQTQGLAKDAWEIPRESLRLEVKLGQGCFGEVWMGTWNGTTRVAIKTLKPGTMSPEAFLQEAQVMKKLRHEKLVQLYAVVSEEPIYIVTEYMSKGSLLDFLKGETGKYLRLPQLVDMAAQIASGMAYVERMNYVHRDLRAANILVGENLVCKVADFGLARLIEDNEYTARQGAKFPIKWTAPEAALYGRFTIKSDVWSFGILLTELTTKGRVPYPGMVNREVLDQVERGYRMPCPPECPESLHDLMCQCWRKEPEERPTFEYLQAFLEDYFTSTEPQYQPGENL
Sequence of Bcr-Abl (P00519 242-493 limits assumed): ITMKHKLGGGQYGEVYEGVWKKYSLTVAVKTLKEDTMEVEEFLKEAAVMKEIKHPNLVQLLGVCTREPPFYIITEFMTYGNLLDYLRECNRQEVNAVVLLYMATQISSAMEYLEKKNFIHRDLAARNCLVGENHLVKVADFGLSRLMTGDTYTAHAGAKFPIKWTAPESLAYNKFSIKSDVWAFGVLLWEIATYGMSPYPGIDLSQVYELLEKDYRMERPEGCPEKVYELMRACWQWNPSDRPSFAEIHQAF

Compound	IC50 [9] [nM]	IC50 [10] [nM]	IC50 [11] [nM]	IC50 [12] [nM]	IC50 [13] [nM]	IC50 [14] [nM]	further results
Cc1ccc(C(=O)Nc2cc(Cl)cc(C(F)(F)F)c2)cc1C#Cc1cnc2ccc(N3CCC(O)CC3)nn12 [XS4-128, N-(3-Chloro-5-(trifluoromethyl)phenyl)-3-((6-(4-hydroxypiperidin-1-yl)imidazo[1,2-B]pyridazine-3-yl)ethynyl)-4-methylbenzamide, reference compound]							IC50 [1]: 129 nM; IC50 [2]: 20.3 nM; IC50 [3]: 10.7 nM; IC50 [4]: 18.9 nM; IC50 [5]: 93.5 nM; IC50 [6]: 19.9 nM; IC50 [7]: 119 nM
Cc1c(C#Cc2cnc3cnc(-c4ccc(N)cc4)cn23)cccc1C(=O)Nc1cc(CN2CCN(C)CC2)cc(C(C)C)c1 [Compound 9o]							AUC (0-∞) ([8]; intravenous injection, 5 mg/kg): 810.45 ng·h/mL; AUC(0-t) ([8]; intravenous injection, 5 mg/kg): 804.65 ng·h/mL; Clearance rate ([8]; intravenous injection, 5 mg/kg): 21.0085 mL/min/kg; Cmax ([8]; intravenous injection, 5 mg/kg): 1968.37 ng/mL; Tmax ([8]; intravenous injection, 5 mg/kg): 0.083 h; half-life ([8]; intravenous injection, 5 mg/kg): 2.03 h; BA ([8]; oral 25 mg/kg vs intravenous 5 mg/kg): 10.72%; AUC (0-∞) ([8]; oral, 25 mg/kg): 445.18 ng·h/mL; AUC(0-t) ([8]; oral, 25 mg/kg): 431.49 ng·h/mL; Cmax ([8]; oral, 25 mg/kg): 63.3 ng/mL; Tmax ([8]; oral, 25 mg/kg): 2 h; half-life ([8]; oral, 25 mg/kg): 4.77 h
Cc1c(C#Cc2cnc3ccc(N4CCC(N(C)C)CC4)nn23)cccc1C(=O)Nc1cc(CN2CCN(C)CC2)cc(C(F)(F)F)c1 [XS3-67, 3-((6-(4-(DIMETHYLAMINO)PIPERIDIN-1-YL)IMIDAZO[1,2-B]PYRIDAZIN-3-YL)ETHYNYL)-2-METHYL-N-(3-((4-METHYLPIPERAZIN-1-YL)METHYL)-5-(TRIFLUOROMETHYL)PHENYL)BENZAMIDE]	< 10	10 to 100	< 10	100 to 1000	100 to 1000	10 to 100	
Cc1c(C#Cc2cnc3ccc(N4CC[C@H](O)C4)nn23)cccc1C(=O)Nc1cc(Cl)cc(C(F)(F)F)c1 [XS3-58, (S)—N-(3-CHLORO-5-(TRIFLUOROMETHYL)PHENYL)-3-((6-(3-HYDROXYPYRROLIDIN-1-YL)IMIDAZO[1,2-B]PYRIDAZIN-3-YL)ETHYNYL)-2-METHYLBENZAMIDE]	10 to 100	10 to 100	10 to 100	100 to 1000	100 to 1000	10 to 100	
Cc1c(C#Cc2cnc3cccnn23)cccc1C(=O)Nc1cc(Cl)cc(C(F)(F)F)c1 [XS2-112, N-(3-CHLORO-5-(TRIFLUOROMETHYL)PHENYL)-3-(IMIDAZO[1,2-B]PYRIDAZIN-3-YLETHYNYL)-2-METHYLBENZENE FORMAMIDE]	100 to 1000	100 to 1000	100 to 1000	100 to 1000	100 to 1000	100 to 1000	
Cc1c(C#Cc2cnc3ccc(N4CCC(N(C)C)CC4)nn23)cccc1C(=O)Nc1cccc(C(F)(F)F)c1 [XS3-57, 3-((6-(4-(DIMETHYLAMINO)PIPERIDIN-1-YL)IMIDAZO[1,2-B]PYRIDAZIN-3-YL)ETHYNYL)-2-METHYL-N-(3-(TRIFLUOROMETHYL)PHENYL)BENZAMIDE]	< 10	< 10	< 10	10 to 100	100 to 1000	10 to 100	
Cc1c(C#Cc2cnc3ccc(N4CCC(N)CC4)nn23)cccc1C(=O)Nc1cc(Cl)cc(C(F)(F)F)c1 [XS3-131, 3-((6-(4-AMINOPIPERIDIN-1-YL)IMIDAZO[1,2-B]PYRIDAZIN-3-YL)ETHYNYL)-N-(3-CHLORO-5-(TRIFLUOROMETHYL)PHENYL)-2-METHYLBENZAMIDE]	10 to 100	10 to 100	10 to 100	100 to 1000	100 to 1000	10 to 100	
Cc1c(C#Cc2cnc3ccc(NCCCCO)nn23)cccc1C(=O)Nc1cc(Cl)cc(C(F)(F)F)c1 [XS3-139, N-(3-CHLORO-5-(TRIFLUOROMETHYL)PHENYL)-3-((6-((4-HYDROXYBUTYL)AMINO)IMIDAZO[1,2-B]PYRIDAZINE-3-YL)ETHYNYL)-2-METHYLBENZAMIDE]	10 to 100	10 to 100	10 to 100	10 to 100	10 to 100	10 to 100	
Cc1c(C#Cc2cnc3ccc(N4CCC(N5CCOCC5)CC4)nn23)cccc1C(=O)Nc1cc(Cl)cc(C(F)(F)F)c1 [XS3-130, N-(3-CHLORO-5-(TRIFLUOROMETHYL)PHENYL)-2-METHYL-3-((6-(4-MORPHOLINPIPERIDIN-1-YL)IMIDAZO[1,2-B]PYRIDAZIN-3-YL)ETHYNYL)BENZAMIDE]	10 to 100	10 to 100	< 10	10 to 100	10 to 100	10 to 100	
Cc1c(C#Cc2cnc3ccc(N4CCN(C)[C@H](C)C4)nn23)cccc1C(=O)Nc1cc(Cl)cc(C(F)(F)F)c1 [XS3-52, (R)—N-(3-CHLORO-5-(TRIFLUOROMETHYL)PHENYL)-3-((6-(3,4-DIMETHYLPIPERAZIN-1-YL)IMIDAZO[1,2-B]PYRIDAZIN-3-YL)ETHYNYL)-2-METHYLBENZAMIDE]	10 to 100	10 to 100	10 to 100	10 to 100	100 to 1000	10 to 100	
